Experimental data: US20080194585A1, “Fungicidal Pyrazine Derivatives” (priority 2005, published 2008)
Marks after values point to notes of the source that are not given here.

How the values were obtained:
Settings in all cases: 100 = 100% disease control, 0 = no control
Pythium aphanidermatum = assay: Test A: bluegrass pythium blight, preventive spray on bluegrass seedlings
[1] = system: Erysiphe graminis f. sp. tritici; assay: Test L: wheat powdery mildew, preventive spray on wheat seedlings
Plasmopara viticola = assay: Test D: grape downy mildew, spray after inoculation of grape seedlings; assay type: in vivo
From the text: Upon removal, disease ratings were made. […] A dash (-) indicates no test results.

Septoria nodorum = assay: Test H: wheat glum blotch, preventive spray on wheat seedlings
Protocol: (the causal agent of wheat glum blotch) and incubated in a saturated atmosphere at 20° C. for 48 h, and then moved to a growth chamber at 22° C. for 5 days, after which disease ratings were made.

Rhizoctonia oryzae = assay: Test G: turf brown patch, preventive spray on creeping bent grass seedlings
Protocol: (the causal agent of turf brown patch) and incubated in a saturated atmosphere at 27° C. for 24 h, and then moved to a growth chamber at 27° C. for 5 days, after which disease ratings were made.

[2] = system: Colletotrichum orbiculare; assay: Test B: cucumber Colletotrichum anthracnose, preventive spray on cucumber seedlings
Botrytis cinerea = assay: Test E: tomato botrytis, preventive spray on tomato seedlings
fusarium graminearium = assay: Test I: wheat head scab, preventive spray on wheat seedlings
Protocol: (the causal agent of wheat head scab) and incubated in a saturated atmosphere at 20° C. for 72 h, and then moved to a growth chamber at 22° C. for 5 days, after which disease ratings were made.

[3] = system: Puccinia recondita f. sp. tritici; assay: Test K: wheat leaf rust, preventive spray on wheat seedlings
Phytophthora infestans = assay: whole plant or invertebrate; assay type: in vivo
Septoria tritici = assay: Test J: wheat leaf blotch, preventive spray on wheat seedlings; assay type: in vivo
From the text: A dash (-) indicates no test results.

Cc1ccn(-c2nc(Cl)c(C(C)C)n(Cc3ccccc3)c2=O)n1 [compound 305]
Test A disease control rating (Pythium aphanidermatum; 200 ppm): 0% | Test L disease control rating ([1]; 200 ppm): 52% | Test D disease control rating (Plasmopara viticola; 200 ppm): 0% | Test H disease control rating (Septoria nodorum; 200 ppm): 0% | Test G disease control rating (Rhizoctonia oryzae; 200 ppm): 16% | Test B disease control rating ([2]; 200 ppm): 0% | Test E disease control rating (Botrytis cinerea; 200 ppm): 99% | Test I disease control rating (fusarium graminearium; 200 ppm): 0% | Test K disease control rating ([3]; 200 ppm): 97% | Test F disease control rating (Phytophthora infestans; 200 ppm): 50% | Test J disease control rating (Septoria tritici; 200 ppm): 93%

CC(C)c1c(Cl)nc(-n2cccn2)c(=O)n1-c1ccccc1 [compound 306]
Test A disease control rating (Pythium aphanidermatum; 200 ppm): 0% | Test L disease control rating ([1]; 200 ppm): 0% | Test D disease control rating (Plasmopara viticola; 200 ppm): 0% | Test H disease control rating (Septoria nodorum; 200 ppm): 0% | Test G disease control rating (Rhizoctonia oryzae; 200 ppm): 0% | Test B disease control rating ([2]; 200 ppm): 0% | Test E disease control rating (Botrytis cinerea; 200 ppm): 0% | Test I disease control rating (fusarium graminearium; 200 ppm): 0% | Test K disease control rating ([3]; 200 ppm): 51% | Test F disease control rating (Phytophthora infestans; 200 ppm): 30% | Test J disease control rating (Septoria tritici; 200 ppm): 44%

Cc1ccn(-c2nc(Cl)c(C(C)C)n(-c3ccccc3)c2=O)n1 [compound 307]
Test A disease control rating (Pythium aphanidermatum; 200 ppm): 0% | Test L disease control rating ([1]; 200 ppm): 0% | Test D disease control rating (Plasmopara viticola; 200 ppm): 0% | Test H disease control rating (Septoria nodorum; 200 ppm): 0% | Test G disease control rating (Rhizoctonia oryzae; 200 ppm): 0% | Test B disease control rating ([2]; 200 ppm): 0% | Test E disease control rating (Botrytis cinerea; 200 ppm): 88% | Test I disease control rating (fusarium graminearium; 200 ppm): 49% | Test K disease control rating ([3]; 200 ppm): 51% | Test F disease control rating (Phytophthora infestans; 200 ppm): 84% | Test J disease control rating (Septoria tritici; 200 ppm): 20%

COC(=O)Cn1c(-c2c(F)cccc2F)c(Cl)nc(-n2ccc(C)n2)c1=O [compound 308]
Test A disease control rating (Pythium aphanidermatum; 40 ppm (marked *)): 0* % | Test L disease control rating ([1]; 40 ppm (marked *)): 0* % | Test D disease control rating (Plasmopara viticola; 40 ppm (marked *)): 0* % | Test H disease control rating (Septoria nodorum; 40 ppm (marked *)): 0* % | Test G disease control rating (Rhizoctonia oryzae; 40 ppm (marked *)): 0* % | Test B disease control rating ([2]; 40 ppm (marked *)): 0* % | Test E disease control rating (Botrytis cinerea; 40 ppm (marked *)): 0* % | Test I disease control rating (fusarium graminearium; 40 ppm (marked *)): 0* % | Test K disease control rating ([3]; 40 ppm (marked *)): 9* % | Test F disease control rating (Phytophthora infestans; 40 ppm (marked *)): 0* % | Test J disease control rating (Septoria tritici; 40 ppm (marked *)): 29* %

CSCC(C)n1c(-c2c(F)cccc2F)c(Cl)nc(-n2ccc(C)n2)c1=O (stereo not shown) [compound 309]
Test A disease control rating (Pythium aphanidermatum; 40 ppm (marked *)): 0* % | Test L disease control rating ([1]; 40 ppm (marked *)): 0* % | Test D disease control rating (Plasmopara viticola; 40 ppm (marked *)): 0* % | Test H disease control rating (Septoria nodorum; 40 ppm (marked *)): 0* % | Test G disease control rating (Rhizoctonia oryzae; 40 ppm (marked *)): 0* % | Test B disease control rating ([2]; 40 ppm (marked *)): 0* % | Test E disease control rating (Botrytis cinerea; 40 ppm (marked *)): 99* % | Test I disease control rating (fusarium graminearium; 40 ppm (marked *)): 0* % | Test K disease control rating ([3]; 40 ppm (marked *)): 0* % | Test F disease control rating (Phytophthora infestans; 40 ppm (marked *)): 0* % | Test J disease control rating (Septoria tritici; 40 ppm (marked *)): 5* %

COCCn1c(-c2c(F)cccc2F)c(Cl)nc(-n2ccc(C)n2)c1=O [compound 310]
Test A disease control rating (Pythium aphanidermatum; 40 ppm (marked *)): 0* % | Test L disease control rating ([1]; 40 ppm (marked *)): 0* % | Test D disease control rating (Plasmopara viticola; 40 ppm (marked *)): 0* % | Test H disease control rating (Septoria nodorum; 40 ppm (marked *)): 64* % | Test G disease control rating (Rhizoctonia oryzae; 40 ppm (marked *)): 0* % | Test B disease control rating ([2]; 40 ppm (marked *)): 0* % | Test E disease control rating (Botrytis cinerea; 40 ppm (marked *)): 0* % | Test I disease control rating (fusarium graminearium; 40 ppm (marked *)): 0* % | Test K disease control rating ([3]; 40 ppm (marked *)): 74* % | Test F disease control rating (Phytophthora infestans; 40 ppm (marked *)): 0* % | Test J disease control rating (Septoria tritici; 40 ppm (marked *)): 42* %

CSCCn1c(-c2c(F)cccc2F)c(Cl)nc(-n2ccc(C)n2)c1=O [compound 311]
Test A disease control rating (Pythium aphanidermatum; 40 ppm (marked *)): 0* % | Test L disease control rating ([1]; 40 ppm (marked *)): 0* % | Test D disease control rating (Plasmopara viticola; 40 ppm (marked *)): 0* % | Test H disease control rating (Septoria nodorum; 40 ppm (marked *)): 0* % | Test G disease control rating (Rhizoctonia oryzae; 40 ppm (marked *)): 0* % | Test B disease control rating ([2]; 40 ppm (marked *)): 0* % | Test E disease control rating (Botrytis cinerea; 40 ppm (marked *)): 94* % | Test I disease control rating (fusarium graminearium; 40 ppm (marked *)): 0* % | Test K disease control rating ([3]; 40 ppm (marked *)): 74* % | Test F disease control rating (Phytophthora infestans; 40 ppm (marked *)): 0* % | Test J disease control rating (Septoria tritici; 40 ppm (marked *)): 74* %

COCC(C)n1c(-c2c(F)cccc2F)c(Cl)nc(-n2cccc2C#N)c1=O (stereo not shown) [compound 312]
Test A disease control rating (Pythium aphanidermatum; 200 ppm): 0% | Test L disease control rating ([1]; 200 ppm): 0% | Test D disease control rating (Plasmopara viticola; 200 ppm): 40% | Test H disease control rating (Septoria nodorum; 200 ppm): 0% | Test G disease control rating (Rhizoctonia oryzae; 200 ppm): 0% | Test B disease control rating ([2]; 200 ppm): 0% | Test E disease control rating (Botrytis cinerea; 200 ppm): 0% | Test I disease control rating (fusarium graminearium; 200 ppm): 0% | Test K disease control rating ([3]; 200 ppm): 0% | Test F disease control rating (Phytophthora infestans; 200 ppm): 9% | Test J disease control rating (Septoria tritici; 200 ppm): 13%

CC(C)Cn1c(-c2c(F)cccc2F)c(Cl)nc(N2CCCC2)c1=O [compound 314]
Test A disease control rating (Pythium aphanidermatum; 200 ppm): 88% | Test L disease control rating ([1]; 200 ppm): 0% | Test D disease control rating (Plasmopara viticola; 200 ppm): 0% | Test H disease control rating (Septoria nodorum; 200 ppm): 0% | Test G disease control rating (Rhizoctonia oryzae; 200 ppm): 0% | Test B disease control rating ([2]; 200 ppm): 0% | Test E disease control rating (Botrytis cinerea; 200 ppm): 0% | Test I disease control rating (fusarium graminearium; 200 ppm): 18% | Test K disease control rating ([3]; 200 ppm): 0% | Test F disease control rating (Phytophthora infestans; 200 ppm): 0% | Test J disease control rating (Septoria tritici; 200 ppm): 0%

CC(C)Cn1c(C2CC2)c(Cl)nc(-n2cccn2)c1=O [compound 315]
Test A disease control rating (Pythium aphanidermatum; 200 ppm): 69% | Test L disease control rating ([1]; 200 ppm): 0% | Test D disease control rating (Plasmopara viticola; 200 ppm): 0% | Test H disease control rating (Septoria nodorum; 200 ppm): 0% | Test G disease control rating (Rhizoctonia oryzae; 200 ppm): 0% | Test B disease control rating ([2]; 200 ppm): 0% | Test E disease control rating (Botrytis cinerea; 200 ppm): 0% | Test I disease control rating (fusarium graminearium; 200 ppm): 0% | Test K disease control rating ([3]; 200 ppm): 0% | Test F disease control rating (Phytophthora infestans; 200 ppm): 0% | Test J disease control rating (Septoria tritici; 200 ppm): 7%

CCc1c(Cl)nc(-n2cccn2)c(=O)n1CC(C)C [compound 316]
Test A disease control rating (Pythium aphanidermatum; 200 ppm): 54% | Test L disease control rating ([1]; 200 ppm): 0% | Test D disease control rating (Plasmopara viticola; 200 ppm): 0% | Test H disease control rating (Septoria nodorum; 200 ppm): 0% | Test G disease control rating (Rhizoctonia oryzae; 200 ppm): 0% | Test B disease control rating ([2]; 200 ppm): 0% | Test E disease control rating (Botrytis cinerea; 200 ppm): 0% | Test I disease control rating (fusarium graminearium; 200 ppm): 0% | Test K disease control rating ([3]; 200 ppm): 0% | Test F disease control rating (Phytophthora infestans; 200 ppm): 0% | Test J disease control rating (Septoria tritici; 200 ppm): 0%

CCCCCc1c(Cl)nc(-n2cccn2)c(=O)n1CC(C)C [compound 317]
Test A disease control rating (Pythium aphanidermatum; 200 ppm): 0% | Test L disease control rating ([1]; 200 ppm): 0% | Test D disease control rating (Plasmopara viticola; 200 ppm): 0% | Test H disease control rating (Septoria nodorum; 200 ppm): 0% | Test G disease control rating (Rhizoctonia oryzae; 200 ppm): 0% | Test B disease control rating ([2]; 200 ppm): 0% | Test E disease control rating (Botrytis cinerea; 200 ppm): 0% | Test I disease control rating (fusarium graminearium; 200 ppm): 0% | Test K disease control rating ([3]; 200 ppm): 41% | Test F disease control rating (Phytophthora infestans; 200 ppm): 0% | Test J disease control rating (Septoria tritici; 200 ppm): 28%

CC(C)Cn1c(-c2c(Cl)cc(Cl)cc2Cl)c(Cl)nc(-n2cccn2)c1=O [compound 318]
Test A disease control rating (Pythium aphanidermatum; 40 ppm (marked *)): 0* % | Test L disease control rating ([1]; 40 ppm (marked *)): 67* % | Test D disease control rating (Plasmopara viticola; 40 ppm (marked *)): 0* % | Test H disease control rating (Septoria nodorum; 40 ppm (marked *)): 97* % | Test G disease control rating (Rhizoctonia oryzae; 40 ppm (marked *)): 78* % | Test B disease control rating ([2]; 40 ppm (marked *)): 82* % | Test E disease control rating (Botrytis cinerea; 40 ppm (marked *)): 99* % | Test I disease control rating (fusarium graminearium; 40 ppm (marked *)): 0* % | Test K disease control rating ([3]; 40 ppm (marked *)): 97* % | Test F disease control rating (Phytophthora infestans; 40 ppm (marked *)): 0* % | Test J disease control rating (Septoria tritici; 40 ppm (marked *)): 100* %

O=c1c(-n2cccn2)nc(Cl)c(-c2c(F)cc(F)cc2F)n1-c1ccccc1F [compound 320]
Test A disease control rating (Pythium aphanidermatum; 40 ppm (marked *)): 74* % | Test L disease control rating ([1]; 40 ppm (marked *)): 96* % | Test D disease control rating (Plasmopara viticola; 40 ppm (marked *)): 0* % | Test H disease control rating (Septoria nodorum; 40 ppm (marked *)): 100* % | Test G disease control rating (Rhizoctonia oryzae; 40 ppm (marked *)): 80* % | Test B disease control rating ([2]; 40 ppm (marked *)): 88* % | Test E disease control rating (Botrytis cinerea; 40 ppm (marked *)): 99* % | Test I disease control rating (fusarium graminearium; 40 ppm (marked *)): 0* % | Test K disease control rating ([3]; 40 ppm (marked *)): 99* % | Test F disease control rating (Phytophthora infestans; 40 ppm (marked *)): 0* % | Test J disease control rating (Septoria tritici; 40 ppm (marked *)): 100* %
